The values that follow come from ChEMBL document CHEMBL1141555, “Synthesis and biological activity of piperazine and diazepane amides that are histamine H3 antagonists and serotonin reuptake inhibitors” (Bioorg Med Chem Lett, 2008).

Common to all, as to format: ADME, organism-based
Data set [1] in a line: Half life in iv dosed rat. The conditions noted are these: in vivo.
Data set [2] is described as follows: Drug level in rat brain at 10 mg/kg, po. The arrangement: dose 10 mg/kg, route oral.
Data set [3] is described as follows: Drug level in rat plasma at 10 mg/kg, po. Also noted: dose 10 mg/kg, route oral.
Data set [4] can be described thus: Bioavailability in rat. Conditions: in vivo.
Data set [5] can be described thus: Clearance in rat. Conditions: in vivo.
The nature of data set [6]: Volume of distribution at steady state in rat. The conditions noted are these: in vivo, read-out: Vdss.

With `CNCc1cc(C(=O)N2CCN(C3CC3)CC2)ccc1Oc1ccc(Cl)c(Cl)c1`, the half-life (as a rule, the time in which the quantity being followed falls by half) in data set [1] was 16.1 h. In addition, the Cmax in data set [2] and in data set [3] was more than 1000 nM each time. The bioavailability (in general, the share of a dose that reaches the circulation, judged against a reference dose that is usually intravenous) in data set [4] amounted to 93%. For the same compound, the clearance (in general, a measure of how efficiently the substance is removed, as volume per time) in data set [5] is 10.2 mL/min/kg. For the same compound, in data set [6], the Vd is 13 L/kg.
